Laboratory results reported in patent US20120015907A1, “Furopyridine compounds and uses thereof” (NOVARTIS AG, priority 2010, published 2012).
pIC50: −log10 of the molar value.

These compounds were tested against T1, HCV polymerase (Hepatitis C virus genotype 1b, UniProt Q9WMX2) (assay: biochemical). Details: NS5B polymerase IC50 μM, polymerase assay of Biological Example 1.
T1 construct: (His)6 (C)
Source text: A number of assays have been published to assess these activities. A general method that assesses the gross increase of HCV virus in culture was disclosed in U.S. Pat. No. 5,738,985 to Miles et al. In vitro assays have been reported in Ferrari et al. Jnl. of Vir., 73:1649-1654, 1999; Ishii et al., Hepatology, 29:1227-1235, 1999; Lohmann et al., Jnl of Bio. Chem., 274:10807-10815, 1999; and Yamashita et al., Jnl. of Bio. Chem., 273:15479-15486, 1998.
WO 97/12033, filed on Sep. 27, 1996, by Emory University, listing C. Hagedorn and A. Reinoldus as inventors, which claims priority to U.S. Provisional Patent Application Ser. No. 60/004,383, filed on September 1995, described an HCV polymerase assay that can be used to evaluate the activity of the of the compounds described herein. Another HCV polymerase assay has been reported by Bartholomeusz, et al., Hepatitis C Virus (HCV) RNA polymerase assay using cloned HCV non-structural proteins; Antiviral Therapy 1996:1(Supp 4) 18-24.

Q: How did the IC50 turn out when `CCOP(C)(=O)CCCCCN(c1nc2oc(-c3ccc(C)cc3)c(C(=O)NC)c2cc1I)S(C)(=O)=O` (stereo not drawn) [Example 23.9994, ethyl 5-(N-(5-iodo-3-(methylcarbamoyl)-2-p-tolylfuro[2,3-b]pyridin-6-yl)methylsulfonamido)pentyl (methyl)phosphinate] was run?
A: The IC50 was 0.038 µM.

Same assay, conditions: polymerase assay of Biological Example 1; read-out: NS5B polymerase IC50

Q: How did the pIC50 turn out when `CNC(=O)c1c(-c2ccc(F)cc2)oc2nc(N(CCCC#N)S(C)(=O)=O)c(I)cc12` [Example 18.2, 6-(N-(3-cyanopropyl)methylsulfonamido)-2-(4-fluorophenyl)-5-iodo-N-methylfuro[2,3-b]pyridine-3-carboxamide] was run?
A: Its pIC50 is 7.21.

Q: With `CNC(=O)c1c(-c2ccc(C)cc2)oc2nc(N(CCC[C@@H](C)C(=O)N[C@H](C(=O)OC)c3ccccc3)S(C)(=O)=O)c(C3CC3)cc12` [Example 29.99997, (S)-methyl 2-((R)-5-(N-(5-cyclopropyl-3-(methylcarbamoyl)-2-p-tolylfuro[2,3-b]pyridin-6-yl)methylsulfonamido)-2-methylpentanamido)-2-phenylacetate] as the compound, how does the pIC50 read?
A: Its pIC50 is 8.40.

Q: How did the pIC50 turn out when `CCc1cc2c(C(=O)NC)c(-c3ccc(F)cc3)oc2nc1N(CCCC(C)(C)C(=O)O)S(C)(=O)=O` [Example 21.4, 5-(N-(5-ethyl-2-(4-fluorophenyl)-3-(methylcarbamoyl)furo[2,3-b]pyridin-6-yl)methylsulfonamido)-2,2-dimethylpentanoic acid] was run?
A: The pIC50 was 8.15.

Q: With `CNC(=O)c1c(-c2ccc(F)cc2)oc2nc3c(cc12)CCCCN(S(C)(=O)=O)CCCN3S(C)(=O)=O` [Example 36.5, 2-(4-Fluoro-phenyl)-9,13-bis-methanesulfonyl-6,7,8,9,10,11,12,13-octahydro-5H-1-oxa-9,13,14-triaza-cycloundeca[f]indene-3-carboxylic acid methylamide] as the compound, how does the pIC50 read?
A: The pIC50 was 6.32.

Q: `CCc1cc2c(C(=O)NC)c(-c3ccc(F)cc3)oc2nc1N(CCCC(=O)OC)S(C)(=O)=O` [Example 21.1, methyl 4-(N-(5-ethyl-2-(4-fluorophenyl)-3-(methylcarbamoyl)furo[2,3-b]pyridin-6-yl)methylsulfonamido)butanoate] was tested. Which pIC50 did it give?
A: The pIC50 was 7.28.

Q: `CCc1cc2c(C(=O)NC)c(-c3ccc(F)cc3)oc2nc1N(CCCCl)S(C)(=O)=O` [Example 22.997, 6-(N-(3-chloropropyl)methylsulfonamido)-5-ethyl-2-(4-fluorophenyl)-N-methylfuro[2,3-b]pyridine-3-carboximide] was tested. Which pIC50 did it give?
A: The pIC50 was 7.08.

Q: How did the pIC50 turn out when `CCc1cc2c(C(=O)NC)c(-c3ccc(F)cc3)oc2nc1N(CCCOc1ccccc1C#N)S(C)(=O)=O` [Example 21.5, 6-(N-(3-(2-cyanophenoxy)propyl)methylsulfonamido)-5-ethyl-2-(4-fluorophenyl)-N-methylfuro[2,3-b]pyridine-3-carboxamide] was run?
A: The pIC50 was 6.72.

Q: How did the pIC50 turn out when `CNC(=O)c1c(-c2ccc(C)cc2)oc2nc(N(CCCCCO)S(C)(=O)=O)c(C3CC3)cc12` [Example 23.99996, 5-cyclopropyl-6-(N-(5-hydroxypentyl)methylsulfon amido)-N-methyl-2-p-tolylfuro[2,3-b]pyridine-3-carboxamide] was run?
A: Its pIC50 is 8.70.

Q: With `CNC(=O)c1c(-c2ccc(F)cc2)oc2nc(N(C)S(C)(=O)=O)c(C(C)(F)F)cc12` [Example 8, 5-(1,1-difluoroethyl)-2-(4-fluorophenyl)-N-methyl-6-(N-methylmethylsulfonamido)furo[2,3-b]pyridine-3-carboxamide] as the compound, how does the pIC50 read?
A: Its pIC50 is 6.90.

Q: `CNC(=O)c1c(-c2ccc(C)cc2)oc2nc(N(CCCC(O)C(C)(C)C(=O)O)S(C)(=O)=O)c(C3CC3)cc12` (stereo not drawn) [Example 50, 6-(N-(5-cyclopropyl-3-(methylcarbamoyl)-2-p-tolylfuro[2,3-b]pyridin-6-yl)methylsulfonamido)-3-hydroxy-2,2-dimethylhexanoic acid] was tested. Which pIC50 did it give?
A: The pIC50 was 8.52.

Q: With `CCc1cc2c(C(=O)NC)c(-c3ccc(F)cc3)oc2nc1N(CCCCC(=O)OC)S(C)(=O)=O` [Example 21, methyl 5-(N-(5-ethyl-2-(4-fluorophenyl)-3-(methylcarbamoyl)furo[2,3-b]pyridin-6-yl)methylsulfonamido)pentanoate] as the compound, how does the pIC50 read?
A: The pIC50 was 8.00.

Q: With `CNC(=O)c1c(-c2ccc(C)cc2)oc2nc(N(CCC3CCCC3C(=O)O)S(C)(=O)=O)c(C3CC3)cc12` (stereo not drawn) [Example 29.3, 2-(2-(N-(5-cyclopropyl-3-(methylcarbamoyl)-2-p-tolylfuro[2,3-b]pyridin-6-yl)methylsulfonamido)ethyl) cyclopentanecarboxylic acid] as the compound, how does the pIC50 read?
A: The pIC50 was 8.22.

Q: How did the pIC50 turn out when `CNC(=O)c1c(-c2ccc(C)cc2)oc2nc(N(CCCC[C@H](COC)C(=O)O)S(C)(=O)=O)c(C3CC3)cc12` [Example 47.5, (R)-6-(N-(5-Cyclopropyl-3-(methylcarbamoyl)-2-p-tolylfuro[2,3-b]pyridin-6-yl)methylsulfonamido)-2-(methoxymethyl)hexanoic acid] was run?
A: Its pIC50 is 8.52.

Q: `CNC(=O)c1c(-c2ccc(C)cc2)oc2nc(N(CCCC(C)(CCOC)C(=O)O)S(C)(=O)=O)c(C3CC3)cc12` (stereo not drawn) [Example 42.1, 5-(N-(5-cyclopropyl-3-(methylcarbamoyl)-2-p-tolylfuro[2,3-b]pyridin-6-yl)methylsulfonamido)-2-(2-methoxyethyl)-2-methylpentanoic acid] was tested. Which pIC50 did it give?
A: The pIC50 was 8.52.

Q: `CNC(=O)c1c(-c2ccc(C)cc2)oc2nc(N(CCCCCO)S(C)(=O)=O)c(I)cc12` [Example 23.99991, 6-(N-(5-hydroxypentyl)methylsulfonamido)-5-iodo-N-methyl-2-p-tolylfuro[2,3-b]pyridine-3-carboxamide] was tested. Which pIC50 did it give?
A: The pIC50 was 8.05.

Q: How did the pIC50 turn out when `CNC(=O)c1c(-c2ccc(C)cc2)oc2nc(N(CCCNS(=O)(=O)C(F)(F)F)S(C)(=O)=O)c(C3CC3)cc12` [Example 23.999992, 5-cyclopropyl-N-methyl-2-p-tolyl-6-(N-(3-(trifluoromethylsulfonamido)propyl)methylsulfonamido) furo[2,3-b]pyridine-3-carboxamide] was run?
A: The pIC50 was 8.70.

Q: `C=Cc1cc2c(C(=O)NC)c(-c3ccc(F)cc3)oc2nc1N(CCCCC(=O)O)S(C)(=O)=O` [Example 24.1, 5-(N-(2-(4-fluorophenyl)-3-(methylcarbamoyl)-5-vinylfuro[2,3-b]pyridin-6-yl)methylsulfonamido) pentanoic acid] was tested. Which pIC50 did it give?
A: The pIC50 was 7.11.

Q: With `CCc1cc2c(C(=O)NC)c(-c3ccc(F)cc3)oc2nc1N(CCN(C)S(=O)(=O)c1ccccc1)S(C)(=O)=O` [Example 22.995, 5-ethyl-2-(4-fluorophenyl)-N-methyl-6-(N-(2-(N-methylphenylsulfonamido)ethyl)methylsulfonamido)furo[2,3-b]pyridine-3-carboxamide] as the compound, how does the pIC50 read?
A: Its pIC50 is 7.62.

Q: `CNC(=O)c1c(-c2ccc(C)cc2)oc2nc(N(CCCC(CC(=O)O)OCCOC)S(C)(=O)=O)c(C3CC3)cc12` (stereo not drawn) [Example 29.999996, 6-(N-(5-cyclopropyl-3-(methylcarbamoyl)-2-p-tolylfuro[2,3-b]pyridin-6-yl)methylsulfonamido)-3-(2-methoxyethoxy) hexanoic acid] was tested. Which pIC50 did it give?
A: Its pIC50 is 7.92.

Q: `CNC(=O)c1c(-c2ccc(Cl)cc2)oc2nc(N(CCCS(C)(=O)=O)S(C)(=O)=O)c(I)cc12` [Example 18.991, 2-(4-chlorophenyl)-5-iodo-N-methyl-6-(N-(3-(methylsulfonyl)propyl)methylsulfonamido)furo[2,3-b]pyridine-3-carboxamide] was tested. Which pIC50 did it give?
A: The pIC50 was 7.54.

Q: How did the pIC50 turn out when `CNC(=O)c1c(-c2ccc(C)cc2)oc2nc(N(CCCC(C)C(=O)O)S(C)(=O)=O)c(C3CC3)cc12` (stereo not drawn) [Example 29.9994, 5-(N-(5-cyclopropyl-3-(methylcarbamoyl)-2-p-tolylfuro[2,3-b]pyridin-6-yl)methylsulfonamido)-2-methylpentanoic acid] was run?
A: The pIC50 was 8.70.

Q: With `CNC(=O)c1c(-c2ccc(C)cc2)oc2nc(N(CCC[C@H](C)C(=O)O)S(C)(=O)=O)c(C3CC3)cc12` [Example 47, (S)-5-(N-(5-cyclopropyl-3-(methylcarbamoyl)-2-p-tolylfuro[2,3-b]pyridin-6-yl)methylsulfonamido)-2-methylpentanoic acid] as the compound, how does the pIC50 read?
A: The pIC50 was 8.70.

Q: With `CCc1cc2c(C(=O)NC)c(-c3ccc(F)cc3)oc2nc1N(CCC1CCN(C(=O)OC(C)(C)C)CC1)S(C)(=O)=O` [Example 21.995, tert-butyl 4-(2-(N-(5-ethyl-2-(4-fluorophenyl)-3-(methylcarbamoyl)furo[2,3-b]pyridin-6-yl)methylsulfonamido)ethyl)piperidine-1-carboxylate] as the compound, how does the pIC50 read?
A: The pIC50 was 6.81.

Q: `CNC(=O)c1c(-c2ccc(C)cc2)oc2nc(N(CCCCCCCC(=O)O)S(C)(=O)=O)c(C3CC3)cc12` [Example 29.991, 8-(N-(5-cyclopropyl-3-(methylcarbamoyl)-2-p-tolylfuro[2,3-b]pyridin-6-yl)methylsulfonamido) octanoic acid] was tested. Which pIC50 did it give?
A: The pIC50 was 8.40.

Q: With `CNC(=O)c1c(-c2ccc(C)cc2)oc2nc(N(CCCC/C(C(=O)O)=C(\C)O)S(C)(=O)=O)c(C3CC3)cc12` [Example 46.1, (Z)-6-(N-(5-cyclopropyl-3-(methylcarbamoyl)-2-(p-tolyl)furo[2,3-b]pyridin-6-yl)methylsulfonamido)-2-(1-hydroxyethylidene)hexanoic acid] as the compound, how does the pIC50 read?
A: Its pIC50 is 8.52.

Q: With `CCc1cc2c(C(=O)NC)c(-c3ccc(F)cc3)oc2nc1N(CCN1Cc2ccccc2S1(=O)=O)S(C)(=O)=O` [Example 22.994, 6-{[2-(1,1-Dioxo-1,3-dihydrobenzo[d]isothiazol-2-yl)-ethyl]-methanesulfonyl-amino}-5-ethyl-2-(4-fluoro-phenyl)-furo[2,3-b]pyridine-3-carboxylic acid methylamide] as the compound, how does the pIC50 read?
A: Its pIC50 is 5.97.
